Experimental data published in US11207301B2, “Sphingosine 1 phosphate receptor agonists for neuroprotection” (RECEPTOS LLC, priority 2017, dated 2021).

Legend:
Format in all cases: cell-based
[1] = system: AKT phosphorylation in primary rat astrocytes; test: AKT phosphorylation in primary rat astrocytes (MSD pAKT assay); settings: Astrocyte, 10 min, 10-minute exposure, mean of n=4
Procedure: (§1) For the experiments using rat primary astrocytes, eight-point concentration-response curves were generated for AKT and ERK phosphorylation in primary rat astrocytes cultures in response to a 10-minute treatment with ozanimod (100 nM-46 pM), Compound 3 (10 nM-5 pM), Compound 1 (10 nM-5 pM), or FTY720-P (10 nM-5 pM). Phosphorylation of AKT and ERK was quantified using Meso Scale Discovery assay kits (MSD Mutli-Spot Phopho-AKT (Ser473) Assay Kit and MSD Multi-Spot MAP Kinase Phosphoprotein Assay Whole Cell Lysate Kit) and imaging platform. AKT and ERK phosphorylation within treated astrocytes were assessed as the mean change in signal intensity compared to DMSO vehicle and the half maximal effective concentration (EC50) was determined using non-linear regression.
(§2) Embryonic day18 (E18) rat cortices were purchased from BrainBits LLC. (Springfield, Ill.) and were cultured according to the supplier's protocol. Briefly, cortices were incubated at 37° C. for 10 minutes in activated papain solution before trituration in hibernation medium containing B27 supplement using a modified siliconized glass Pasteur pipette. The cell suspension was centrifuged at 1100×g for 1 minute at room temperature (RT). The cell pellet was then resuspended in NbAstro medium (BrainBits LLC.) and the live cell density was assessed using a cell counter. Primary cells were plated at a density of 7500 cells/cm2 in T75 tissue culture flasks coated with poly-D-lysine (PDL) in a total volume of 12 mL of NbAstro media, and incubated for 10-14 days at 37° C. 5% CO2. After 10-14 days, primary astrocytes in passage 0 (P0) that had reached confluency in the T75 flasks were detached using TrypLE detachment reagent, pelleted at 300×g, and plated into poly-d-lysine coated T225 flasks in 20 mL of NbAstro media, and incubated for another 7 days at 37° C. 5% CO2. After 7 days, primary P1 astrocytes in confluent T225 flasks were detached using TrypLE detachment reagent, pelleted at 300×g, and plated intopoly-d-lysine coated 96-well plates at 10,000 cells per well in 200 μL of NbAstro media, and incubated for 7 days at 37° C. 5% CO2. After 7 days, P2 primary astrocytes were utilized for pAKT and pERK assays.
(§3) The pAKT (phosphorylated AKT) assay was performed according to the manufacturer's protocol. Briefly, MSD pAKT plates were blocked for 1-2 hours by adding 150 μL of blocker A prepared in 1× Tris wash buffer. […] Following antibody incubation, plates were washed three times with 150 μL of 1× Tris wash buffer and 1× read buffer (150 μL/well) was added. Finally, plates were read in the MSD imager platform to assess pAKT levels.
(§4) AKT and ERK phosphorylation data were analyzed by non-linear regression (GraphPad Prism, version 6) to determine the EC50 values.

[2] = system: ERK phosphorylation in primary rat astrocytes; test: ERK phosphorylation in primary rat astrocytes (MSD pERK assay); settings: Astrocyte, 10 min, 10-minute exposure, mean of n=3
Procedure: as §1, §2
as §3, with “The pERK” for “The pAKT”, “(phosphorylated ERK)/pMAPkinase” for “(phosphorylated AKT)”, “MSD pERK/pMAPkinase” for “MSD pAKT”, “Finally, the” for “Finally,”, “assess the pERK” for “assess pAKT”
as §4

[3] = system: AKT phosphorylation in primary mouse astrocytes; test: AKT phosphorylation in primary mouse cortical astrocytes (AlphaLISA SureFire Ultra); settings: Astrocyte, 10 min, 10-minute exposure, mean of n=3
Procedure: (§5) For the experiments using mouse and human primary astrocytes, ten-point concentration-response curves (90 nM-4.57 pM or 30 nM-1.52 pM) were generated for AKT and/or ERK phosphorylation in primary human and mouse cortical astrocytic cultures in response to a 10-minute treatment with ozanimod, Compound 3, Compound 1, or FTY720-P. AKT and ERK phosphorylation were quantified using AlphaLISA SureFire Ultra Assay kits and the EnVision Plate Reader. AKT and ERK phosphorylation within treated astrocytes were expressed as the mean change in signal intensity compared to the dimethyl sulfoxide (DMSO) vehicle and the half maximal effective concentration (EC50) was determined using non-linear regression.
Timed pregnant (E16) C57BL/6J female mice arrive to the test facility on a weekly basis and were housed and cared for according to appropriate protocols for this model. Primary mouse cortical astrocytes are harvested from P0-P2 pups. The newly born animals were deeply anesthetized on ice, decapitated, and the brains were rapidly removed and stored in ice-cold NbAstro media (BrainBits, LLC). Cells were dissociated from freshly dissected cortices by mechanical disruption in the presence of trypsin and DNase. Cells were put into a PDL coated T75 tissue culture flask containing 16 mL NbAstro Media and incubated at 37° C. 5% CO2. Once the mouse astrocytes had reached confluency in the T75 flask, they were detached using TripLE detachment reagent, pelleted at 300×g, expanded into two T225 PDL coated tissue culture flasks containing 40 mL of NbAstro and incubated at 37° C. 5% CO2. Once the astrocytes reached confluency in the T225 flasks they were detached using TrypLE detachment reagent, pelleted at 300×g, plated into PDL coated 96-well plates at a density of 10,000 cells per well in 200 μL NbAstro and incubated at 37° C. 5% CO2. Half of the media was replenished every 3-4 days. After 5-7 days of incubation, the P2 mouse astrocyte plates were utilized for the pERK and pAKT assays.
Cell lysis and detection of pAKT were performed according to the PerkinElmer AlphaLISA SureFire Ultra pAKT1/2/3 ([…]) assay protocol. Astrocytes were lysed in the 96-well plate following a 10 minute incubation with compounds with shaking at room temperature (RT). The astrocytic lysates (10 μL/well) were transferred into a 384-well OptiPlate. As specified by the assay protocol, an acceptor bead mix and a donor bead mix (5 μL/well for each) were added to the plate under subdued light. […] The plates were read on the EnVision Plate Reader to assess the pAKT levels.
(§6) The AKT and ERK phosphorylation data, collected by a Perkin Elmer EnVision Microplate Reader, was analyzed by non-linear regression (GraphPad Prism, version 7.03) to determine the EC50 values.

[4] = system: ERK phosphorylation in primary human astrocytes; test: ERK phosphorylation in primary human cortical astrocytes (AlphaLISA SureFire Ultra); settings: Astrocyte, 10 min, 10-minute exposure, n=3-5
Procedure: as §5
Primary human astrocytes were purchased from ScienCell Research Laboratories, Inc. and cultured according to the supplier's protocol. The astrocytes were obtained from the human cerebral cortex, cryopreserved at passage one, and delivered frozen. The frozen vials of cells were gently thawed in a 37° C. water bath. Once the contents of the vial were completely thawed, the cell solution was dispensed into a poly-L-lysine (PLL) coated T75 tissue culture flask with 16 mL of human Astrocyte Media, (ScienCell Research Laboratories, Inc.) and incubated at 37° C. 5% CO2. Once the human astrocytes had reached confluency in the T75 flask, they were detached using trypsin/EDTA 0.25%, pelleted at 300×g, split into two PLL coated T225 tissue culture flasks in 40 mL of astrocyte media, and incubated at 37° C. 5% CO2. Once the astrocytes reached confluency in the T225 flasks, they were detached using trypsin/EDTA 0.25% solution, pelleted at 300×g, plated into poly-D-lysine (PDL) coated 96-well plates at a density of 10,000 cells per well in 200 μL human Astrocyte Media, and incubated at 37° C. 5% CO2. Half of the media was replenished every 3-4 days. After 5-7 days of incubation, the P2 human astrocyte plates were utilized for the pERK and pAKT assays.
Cell lysis and detection of pERK were performed according to the PerkinElmer AlphaLISA SureFire Ultra p-ERK1/2 (Thr202/TYR 204) assay protocol. Astrocytes were lysed in the 96-well plate following a 10 minute incubation with compounds with shaking at RT. The astrocytic lysates (10 μL/well) were transferred into a 384-well OptiPlate. As specified by the assay protocol, an acceptor bead mix and a donor bead mix (5 μL/well for each) were added to the plate under subdued light. Plates were sealed with adhesive plate seals and incubated in the dark for 2 hours at RT. The plates were read on the EnVision Plate Reader to assess the pERK levels.
as §6

CC(C)Oc1ccc(-c2nc(-c3cccc4c3CCC4NCC(=O)O)no2)cc1C#N (stereo not shown) [Compound 3]
EC50 [1]: 0.23 nM | EC50 [2]: 0.11 nM | EC50 [3]: 0.13 nM | EC50 [4]: 0.5 nM
